Data taken from patent US6576261B1, “Potentiation of inclusion complex formation of cyclodextrin derivatives” (priority 1999, dated 2003).
Like-named read-outs stand apart in the source and are kept apart here.

Tests used:
Assay type in all cases: physicochemical
[1] = Solubility of TRIMEA and DIMEB and complex formation between the two hosts in absence of a guest
Procedure: TRIMEA and DIMEB dissolve in water more than 33 g per 100 ml of water. The solubilities of both these compounds in water can be decreased by the addition of salts or by an increase of temperature. Thus, in aqueous solution of sodium sulfate (1 M), TRIMEA dissolved to the saturation concentration just of 0.4 mg/ml and DIMEB to 3.4 mg/ml. […] If a 1:1 complex between TRIMEA and DIMEB is assumed to form, the association constant of 700 [1/M] can be estimated for that complex, which is of the same order of magnitude as association constants of many complexes formed of guests and cyclodextrins.

[2] = Preparation and stabilization of colloidal compositions of calcium fluoride; conditions: alone or in combination with TRIMEA; precipitation from calcium chloride and sodium fluoride
insulin = insulin (Homo sapiens, UniProt P01308); experiment: Stabilization and solubilization of insulin by highly methylated cyclodextrins; conditions: cyclodextrins at 2 or 4% in phosphate buffered solution, insulin 1 mg/ml, final pH less than 6
Sequence of insulin (P01308 25-54 limits assumed, species assumed): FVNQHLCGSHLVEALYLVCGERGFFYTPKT
Sequence of insulin (P01308 90-110 limits assumed, species assumed): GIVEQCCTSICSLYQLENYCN

COC[C@H]1O[C@@H]2O[C@H]3[C@H](O)[C@@H](OC)[C@@H](O[C@H]4[C@H](O)[C@@H](OC)[C@@H](O[C@H]5[C@H](O)[C@@H](OC)[C@@H](O[C@H]6[C@H](O)[C@@H](OC)[C@@H](O[C@H]7[C@H](O)[C@@H](OC)[C@@H](O[C@H]8[C@H](O)[C@@H](OC)[C@@H](O[C@H]1[C@H](O)[C@H]2OC)O[C@@H]8COC)O[C@@H]7COC)O[C@@H]6COC)O[C@@H]5COC)O[C@@H]4COC)O[C@@H]3COC [DIMEB]
saturation concentration ([1]; aqueous solution of sodium sulfate (1 M)): 3.4 mg/mL
preparation and stabilization of colloidal compositions of calcium fluoride [2]: effective

COC[C@H]1O[C@@H]2O[C@@H]3[C@@H](OC)[C@@H](OC)[C@@H](O[C@@H]4[C@@H](OC)[C@@H](OC)[C@@H](O[C@@H]5[C@@H](OC)[C@@H](OC)[C@@H](O[C@@H]6[C@@H](OC)[C@@H](OC)[C@@H](O[C@@H]7[C@@H](OC)[C@@H](OC)[C@@H](O[C@@H]1[C@@H](OC)[C@H]2OC)O[C@@H]7COC)O[C@@H]6COC)O[C@@H]5COC)O[C@@H]4COC)O[C@@H]3COC [TRIMEA]
saturation concentration [1]: 0.4 mg/mL
stabilizer of the dissolved insulin (insulin): more effective stabilizer of the dissolved insulin than DIMEB or TRIMEB
